Assay results from PMC12136037, “Type II kinase inhibitors that target Parkinson’s disease–associated LRRK2” (Science Advances, 2025).
Several values for one entry are separate records, joined by “and”; a condition that tells them apart may be missing. Equal entries are not always repeated.

Tests used:
[1] = target: T1, ~100 representative kinases (Homo sapiens, UniProt Q96KB5); assay: DSF 100 kinase selectivity screen; type: binding; conditions: Protein TOPK; DSF; average of three replicates;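 further: compound tested at 20 µM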
T1 construct: Recombinant protein kinase domains with a concentration of 2 μM
T1 sequence (Q96KB5 1-322): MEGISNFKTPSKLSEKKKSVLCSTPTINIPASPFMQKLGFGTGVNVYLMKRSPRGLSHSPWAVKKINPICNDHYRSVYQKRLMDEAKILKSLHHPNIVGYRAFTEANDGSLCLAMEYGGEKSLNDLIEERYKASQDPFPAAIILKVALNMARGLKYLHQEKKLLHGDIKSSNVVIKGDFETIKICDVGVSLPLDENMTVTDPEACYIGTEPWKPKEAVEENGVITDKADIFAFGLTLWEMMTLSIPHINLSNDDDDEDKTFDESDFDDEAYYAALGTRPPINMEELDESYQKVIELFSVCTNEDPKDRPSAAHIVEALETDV
In short: (§1)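 Each kinase domain, at 2 μM, is mixed with 20 μM test compound and SYPRO Orange in Hepes (20 mM, pH 7.5) with 500 mM NaCl. Temperature is then raised at 3°C/min and fluorescence-monitored unfolding yields the melting temperature change, ΔTm in degrees Celsius.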

[2] = target: T2, ~100 representative kinases (Homo sapiens, UniProt Q9BRS2); assay: DSF 100 kinase selectivity screen; type: binding; conditions: Protein RIOK1; DSF; average of three replicates;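 further: compound tested at 20 µM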
T2 construct: Recombinant protein kinase domains with a concentration of 2 μM
T2 sequence (Q9BRS2 1-568): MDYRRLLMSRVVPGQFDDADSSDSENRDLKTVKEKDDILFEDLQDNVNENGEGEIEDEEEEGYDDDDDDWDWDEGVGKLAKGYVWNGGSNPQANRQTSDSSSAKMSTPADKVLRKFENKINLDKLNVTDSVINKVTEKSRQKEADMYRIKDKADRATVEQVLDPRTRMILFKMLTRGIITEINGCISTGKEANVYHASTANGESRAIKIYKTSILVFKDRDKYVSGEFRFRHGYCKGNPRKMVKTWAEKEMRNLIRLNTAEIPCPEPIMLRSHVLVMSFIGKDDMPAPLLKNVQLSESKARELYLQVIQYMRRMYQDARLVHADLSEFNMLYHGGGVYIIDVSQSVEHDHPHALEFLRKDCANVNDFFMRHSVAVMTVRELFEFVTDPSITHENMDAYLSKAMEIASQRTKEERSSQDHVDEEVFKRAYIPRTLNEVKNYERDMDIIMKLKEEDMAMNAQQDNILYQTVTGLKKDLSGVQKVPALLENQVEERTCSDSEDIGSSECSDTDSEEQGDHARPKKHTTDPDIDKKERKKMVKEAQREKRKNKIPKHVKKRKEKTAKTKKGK
In short: as §1

[3] = tested on: LRRK2 S935 phosphorylation; assay: Western blot of LRRK2 biomarker site pS935 in transfected 293T cells; type: cell-based, human; conditions: for pS935 LRRK2/LRRK2 normalized to DMSO, Mean / pS935 LRRK2/LRRK2 normalized to DMSO: 4 h; for pS935 LRRK2/LRRK2 normalized to DMSO, Mean: 3 replicates; for pS935 LRRK2/LRRK2 normalized to DMSO: individual Western blots; for effect on phosphorylation of LRRK2 S935: 293T cells, MLi-2 500 nM
Method: For all in cell kinase assays, after 48 hours, transfected cells were treated with either DMSO (control) or the indicated inhibitors for 4 hours at 37°C and 5% CO2. Following treatments, cells were washed three times with ice cold PBS. Cells were then lysed in ice cold radioimmunoprecipitation assay (RIPA) lysis buffer [50 mM tris (pH 8.0), 150 mM NaCl, 1% Triton X-100, 0.1% SDS, 0.5% sodium deoxycholate, and 1 mM DTT] in the presence of complete mini EASYpack protease inhibitor cocktail and the PhosSTOP EASYpack phosphatase inhibitor cocktail (Roche). Resuspended and lysed cells were clarified by centrifugation at 13,000g for 15 min at 4°C. NuPAGE LDS Sample Buffer (1×) and NuPAGE Sample Reducing Agent (1×; Invitrogen) were added to the clarified supernatants, and the samples were boiled at 95°C for 5 min and spun down at 13,000g for 10 min. For Western blotting, 15 μl of sample was loaded into a NuPAGE 4 to 12% gradient bis-tris gel (Invitrogen) and run at 120 V for 75 min before transfer to polyvinylidene difluoride transfer membrane (0.45-μm pore size, Millipore) for 240 min at 80 V at 4°C. The membrane was blocked in 5% milk in 1× Tris-buffered saline (TBS) [20 mM tris (pH 8.0) and 150 mM NaCl] for 1 hour shaking at room temperature. Primary antibodies [monoclonal rabbit anti-LRRK2 (Abcam, ab133474; RRID: AB_2713963), polyclonal rabbit anti-LRRK1 (Abcam, ab228666), monoclonal rabbit anti-LRRK2 phospho-S935 (Abcam, ab133450; RRID: AB_2732035), monoclonal rabbit anti-Rab8a phospho-T72 (Abcam, ab230260; RRID: AB_2814988), monoclonal rabbit anti-Rab7 phospho-S72 (Abcam, ab302494; RRID: AB_2933985), monoclonal rabbit anti–glyceraldehyde-3-phosphate dehydrogenase (GAPDH; Cell Signalling Technology, 2118; RRID: AB_561053), and monoclonal mouse anti-GFP (Santa Cruz Biotechnology, sc-9996; RRID: AB_627695)] were diluted in 5% milk in TBS and incubated with membrane for 16 hours at 4°C. Following incubation, membranes were washed three times with 1× TBS-T [20 mM tris (pH 8.0), 150 mM NaCl, and 0.1% Tween 20] before incubation with IRDye 680RD goat anti-rabbit IgG (LI-COR, 926-68071; RRID: AB_10956166) and IRDye 800CW goat anti-mouse IgG (LI-COR, 926-32210; RRID: AB_621842) secondary antibodies in 5% milk in 1× TBS for 1 hour at room temperature. Membranes were then washed three times in 1× TBS-T before imaging on Li-COR Odyssey CLx controlled by Imaging Studio software (www.licorbio.com/image-studio, RRID:SCR_015795). Image processing and quantification were performed in ImageJ version 2.14.0 (National Institutes of Health; https://imagej.net/, RRID:SCR_003070). The signal intensity of each band was assessed using the Analyze>Gels tool. The band intensity for phosphorylated LRRK2 was measured and compared to total LRRK2 levels (run under identical conditions on a separate gel). Band intensity for phosphorylated Rab7 or Rab8a was measured and compared against total GFP-Rab7 or GFP-Rab8a (using anti-GFP antibody) and LRRK1/LRRK2 levels as appropriate. Comparative statistical analysis of phosphorylation levels was analyzed using a one-way analysis of variance (ANOVA) and corrected using Tukey’s multiple comparisons test in GraphPad Prism 10 (www.graphpad.com/, RRID:SCR_002798). (For current step-by-step protocol for LRRK transfection and Western blotting, see dx.doi.org/10.17504/protocols.io.kxygx9bozg8j/v1.)

Cc1ccc(C(=O)Nc2ccc(CN3CCN(C)CC3)c(C(F)(F)F)c2)cc1C#Cc1c[nH]c2ncnc(N3CCOCC3)c12 [Compound 1]
dTm [1]: 2.13 K
dTm [2]: 4.09 K

Cc1ccc(-n2nc(C(C)(C)C)cc2NC(=O)Nc2cccc(-c3c[nH]c4nc(Cl)nc(N5CCOCC5)c34)c2)cc1 [Compound 30]
pS935 LRRK2/LRRK2 normalized to DMSO, Mean ([3]; 250 nM): 0.9168
pS935 LRRK2/LRRK2 normalized to DMSO ([3]; 250 nM, listed as 277): 0.9442 and 0.8289 and 0.9773
pS935 LRRK2/LRRK2 normalized to DMSO, Mean ([3]; 500 nM): 0.8971
pS935 LRRK2/LRRK2 normalized to DMSO ([3]; 500 nM, listed as 277): 0.9489 and 0.8102 and 0.9321
pS935 LRRK2/LRRK2 normalized to DMSO, Mean ([3]; 1 μM): 0.8756
pS935 LRRK2/LRRK2 normalized to DMSO ([3]; 1 μM, listed as 277): 1.005 and 0.7529 and 0.869
pS935 LRRK2/LRRK2 normalized to DMSO, Mean ([3]; 5 μM): 0.9338
pS935 LRRK2/LRRK2 normalized to DMSO ([3]; 5 μM, listed as 277): 0.9369 and 0.9197 and 0.9447
pS935 LRRK2/LRRK2 normalized to DMSO, Mean ([3]; 10 μM): 0.9235
pS935 LRRK2/LRRK2 normalized to DMSO ([3]; 10 μM, listed as 277): 0.9197 and 0.9052 and 0.9455
effect on phosphorylation of LRRK2 S935 [3]: none of the tested type II inhibitors (broad-spectrum kinase inhibitor Ponatinib or our top compounds RN277 and RN341) reduced the phosphorylation level at this site

CCSc1nc(NC)c2c(-c3cccc(NC(=O)Nc4cc(C(C)(C)C)nn4-c4ccc(C)cc4)c3)c[nH]c2n1 [Compound 32]
pS935 LRRK2/LRRK2 normalized to DMSO, Mean ([3]; 250 nM): 0.9603
pS935 LRRK2/LRRK2 normalized to DMSO ([3]; 250 nM, listed as 341): 0.9872 and 0.9193 and 0.9743
pS935 LRRK2/LRRK2 normalized to DMSO, Mean ([3]; 500 nM): 0.9221
pS935 LRRK2/LRRK2 normalized to DMSO ([3]; 500 nM, listed as 341): 0.9409 and 0.8795 and 0.9459
pS935 LRRK2/LRRK2 normalized to DMSO, Mean ([3]; 1 μM): 0.8783
pS935 LRRK2/LRRK2 normalized to DMSO ([3]; 1 μM, listed as 341): 0.9145 and 0.9018 and 0.8186
pS935 LRRK2/LRRK2 normalized to DMSO, Mean ([3]; 5 μM): 0.8974
pS935 LRRK2/LRRK2 normalized to DMSO ([3]; 5 μM, listed as 341): 0.9195 and 0.9472 and 0.8255
pS935 LRRK2/LRRK2 normalized to DMSO, Mean ([3]; 10 μM): 0.9517
pS935 LRRK2/LRRK2 normalized to DMSO ([3]; 10 μM, listed as 341): 0.9588 and 0.9056 and 0.9906
effect on phosphorylation of LRRK2 S935 [3]: none of the tested type II inhibitors (broad-spectrum kinase inhibitor Ponatinib or our top compounds RN277 and RN341) reduced the phosphorylation level at this site

CCNc1nc(Nc2cc(F)c(C(=O)N3CCOCC3)cc2OC)ncc1C(F)(F)F [GNE-7915]
dTm [1]: 0.03 K
dTm [2]: -0.09 K

Cc1ccc(C(=O)Nc2ccc(CN3CCN(C)CC3)c(C(F)(F)F)c2)cc1C#Cc1cnc2[nH]ncc2c1 [GZD-824, reference compound]
dTm [1]: 4.33 K
dTm [2]: 2.49 K

C[C@@H]1CN(c2cc(-c3n[nH]c4ccc(OC5(C)CC5)cc34)ncn2)C[C@H](C)O1 [MLi2]
dTm [1]: 0.0743 K
dTm [2]: -1.66 K

Cn1cc(-c2c[nH]c3ncnc(N4CCOCC4)c23)cc1C#N [PFE-360]
dTm [1]: 0.66 K
dTm [2]: -0.58 K

Cc1ccc(C(=O)Nc2ccc(CN3CCN(C)CC3)c(C(F)(F)F)c2)cc1C#Cc1cnc2cccnn12 [Ponatinib, reference compound]
pS935 LRRK2/LRRK2 normalized to DMSO, Mean ([3]; 5 μM): 0.91
pS935 LRRK2/LRRK2 normalized to DMSO ([3]; 5 μM): 0.7959 and 0.8749 and 1.059
effect on phosphorylation of LRRK2 S935 [3]: none of the tested type II inhibitors (broad-spectrum kinase inhibitor Ponatinib or our top compounds RN277 and RN341) reduced the phosphorylation level at this site
dTm [1]: 2.32 K
dTm [2]: 1.86 K
